Experiments:
[1] = test system: corn; test: Test C postemergence; assay type: in vivo, Zea mays
How it was run: (§1)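 Seeds were planted in loam soil plus sand and sprayed preemergence. In parallel, potted plants in a peat-based medium were sprayed postemergence at 2 to 18 cm (1- to 4-leaf stage). Compounds were formulated in non-phytotoxic solvent with surfactant.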

[2] = test system: pigweed; test: Test A preemergence; assay type: in vivo, Amaranthus retroflexus; conditions: 0 to 100 scale (0 no effect, 100 complete control)
How it was run: (§2)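 Pre- and postemergence spray tests in a loam soil–sand mixture: seeded soil received a directed spray, while established seedlings 2–10 cm high at the one- to two-leaf stage were treated over the top. Compounds were carried in non-phytotoxic solvent with surfactant.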

[3] = test system: nutsedge, yellow; test: Test C postemergence; assay type: in vivo, Cyperus esculentus
How it was run: as §1

[4] = test system: oat, wild; test: Test C postemergence; assay type: in vivo, Avena fatua
How it was run: as §1

[5] = test system: foxtail, giant; test: Test C postemergence; assay type: in vivo, Setaria faberii
How it was run: as §1

[6] = test system: oilseed rape; test: Test C postemergence; assay type: in vivo, Brassica napus
How it was run: as §1

[7] = test system: soybean; test: Test C postemergence; assay type: in vivo, Glycine max
How it was run: as §1

[8] = test system: waterhemp; test: Test C postemergence; assay type: in vivo, Amaranthus rudis
How it was run: as §1

[9] = test system: foxtail, giant; test: Test A postemergence; assay type: in vivo, Setaria faberii; conditions: 0 to 100 scale (0 no effect, 100 complete control), approx. 10 d
How it was run: as §2

[10] = test system: ryegrass, Italian; test: Test C postemergence; assay type: in vivo, Lolium multiflorum
How it was run: as §1

[11] = test system: pigweed; test: Test A postemergence; assay type: in vivo, Amaranthus retroflexus; conditions: 0 to 100 scale (0 no effect, 100 complete control), approx. 10 d
How it was run: as §2

[12] = test system: sedge, umbrella; test: Test B flooded paddy test; assay type: in vivo, Cyperus difformis; conditions: 250 g ai/ha, applied to paddy water at 2-leaf stage, visual rating after 13 to 15 d, scale 0 (no effect) to 100 (complete control)
How it was run: (§3)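 Pots were flooded to 3 cm above the soil at treatment, and compounds were applied directly into the paddy water. That depth was held throughout. After 13 to 15 d in a greenhouse, plants were rated visually against untreated controls.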

[13] = test system: barnyardgrass; test: Test B flooded paddy test; assay type: in vivo, Echinochloa crus-galli; conditions: 250 g ai/ha, applied to paddy water at 2-leaf stage, visual rating after 13 to 15 d, scale 0 (no effect) to 100 (complete control)
How it was run: as §3

[14] = test system: wheat; test: Test A postemergence; assay type: in vivo, Triticum aestivum; conditions: 0 to 100 scale (0 no effect, 100 complete control), approx. 10 d
How it was run: as §2

[15] = test system: barnyardgrass; test: Test C postemergence; assay type: in vivo, Echinochloa crus-galli
How it was run: as §1

[16] = test system: blackgrass; test: Test C postemergence; assay type: in vivo, Alopecurus myosuroides
How it was run: as §1

[17] = test system: lambsquarters; test: Test C postemergence; assay type: in vivo, Chenopodium album
How it was run: as §1

[18] = test system: galium; test: Test C postemergence; assay type: in vivo, Galium aparine
How it was run: as §1

[19] = test system: wheat (winter wheat); test: Test C postemergence; assay type: in vivo, Triticum aestivum
How it was run: as §1

[20] = test system: chickweed; test: Test C postemergence; assay type: in vivo, Stellaria media
How it was run: as §1

SMILES: COc1nc(-c2ccccc2)nn1Cc1ccnc(C(F)(F)F)c1 [Compound 32]
- Plant response rating (scale of 0 to 100 where 0 is no effect and 100 is complete control) ([1]; 31 g ai/ha): 10
- Plant response rating (scale of 0 to 100 where 0 is no effect and 100 is complete control) ([1]; 62 g ai/ha): 20
- Plant response rating (scale of 0 to 100 where 0 is no effect and 100 is complete control) ([1]; 125 g ai/ha): 25
- Plant response rating (scale of 0 to 100 where 0 is no effect and 100 is complete control) ([1]; 250 g ai/ha): 35
- Plant response rating, Pigweed ([2]; 125 g ai/ha): 100
- Plant response rating, Pigweed ([2]; 500 g ai/ha, approx. 10 d): 100
- Plant response rating (scale of 0 to 100 where 0 is no effect and 100 is complete control) ([3]; 31 g ai/ha): 10
- Plant response rating (scale of 0 to 100 where 0 is no effect and 100 is complete control) ([3]; 62 g ai/ha): 20
- Plant response rating (scale of 0 to 100 where 0 is no effect and 100 is complete control) ([3]; 125 g ai/ha): 10
- Plant response rating (scale of 0 to 100 where 0 is no effect and 100 is complete control) ([3]; 250 g ai/ha): 25
- Plant response rating (scale of 0 to 100 where 0 is no effect and 100 is complete control) ([4]; 31 g ai/ha): 0
- Plant response rating (scale of 0 to 100 where 0 is no effect and 100 is complete control) ([4]; 62 g ai/ha): 5
- Plant response rating (scale of 0 to 100 where 0 is no effect and 100 is complete control) ([4]; 125 g ai/ha): 5
- Plant response rating (scale of 0 to 100 where 0 is no effect and 100 is complete control) ([4]; 250 g ai/ha): 10
- Plant response rating (scale of 0 to 100 where 0 is no effect and 100 is complete control) ([5]; 31 g ai/ha): 10
- Plant response rating (scale of 0 to 100 where 0 is no effect and 100 is complete control) ([5]; 62 g ai/ha): 10
- Plant response rating (scale of 0 to 100 where 0 is no effect and 100 is complete control) ([5]; 125 g ai/ha): 10
- Plant response rating (scale of 0 to 100 where 0 is no effect and 100 is complete control) ([5]; 250 g ai/ha): 10
- Plant response rating (scale of 0 to 100 where 0 is no effect and 100 is complete control) ([6]; Oilsee Rape, 250 g ai/ha): 45
- Plant response rating (scale of 0 to 100 where 0 is no effect and 100 is complete control) ([6]; Oilseed Rape, 31 g ai/ha): 20
- Plant response rating (scale of 0 to 100 where 0 is no effect and 100 is complete control) ([6]; Oilseed Rape, 62 g ai/ha): 5
- Plant response rating (scale of 0 to 100 where 0 is no effect and 100 is complete control) ([6]; Oilseed Rape, 125 g ai/ha): 10
- Plant response rating (scale of 0 to 100 where 0 is no effect and 100 is complete control) ([7]; 31 g ai/ha): 20
- Plant response rating (scale of 0 to 100 where 0 is no effect and 100 is complete control) ([7]; 62 g ai/ha): 25
- Plant response rating (scale of 0 to 100 where 0 is no effect and 100 is complete control) ([7]; 125 g ai/ha): 30
- Plant response rating (scale of 0 to 100 where 0 is no effect and 100 is complete control) ([7]; 250 g ai/ha): 35
- Plant response rating (scale of 0 to 100 where 0 is no effect and 100 is complete control) ([8]; 31 g ai/ha): 85
- Plant response rating (scale of 0 to 100 where 0 is no effect and 100 is complete control) ([8]; 62 g ai/ha): 90
- Plant response rating (scale of 0 to 100 where 0 is no effect and 100 is complete control) ([8]; 125 g ai/ha): 90
- Plant response rating (scale of 0 to 100 where 0 is no effect and 100 is complete control) ([8]; 250 g ai/ha): 98
- Plant response rating, Foxtail, Giant ([9]; 125 g ai/ha): 60
- Plant response rating, Foxtail, Giant ([9]; 500 g ai/ha): 90
- Plant response rating (scale of 0 to 100 where 0 is no effect and 100 is complete control) ([10]; 31 g ai/ha): 0
- Plant response rating (scale of 0 to 100 where 0 is no effect and 100 is complete control) ([10]; 62 g ai/ha): 0
- Plant response rating (scale of 0 to 100 where 0 is no effect and 100 is complete control) ([10]; 125 g ai/ha): 0
- Plant response rating (scale of 0 to 100 where 0 is no effect and 100 is complete control) ([10]; 250 g ai/ha): 10
- Plant response rating, Pigweed ([11]; 125 g ai/ha): 90
- Plant response rating, Pigweed ([11]; 500 g ai/ha): 100
- Plant response rating, Sedge, Umbrella, Flood [12]: 75
- Plant response rating, Barnyardgrass, Flood [13]: 0
- Plant response rating, Wheat ([14]; 125 g ai/ha): 0
- Plant response rating, Wheat ([14]; 500 g ai/ha): 20
- Plant response rating (scale of 0 to 100 where 0 is no effect and 100 is complete control) ([15]; 31 g ai/ha): 10
- Plant response rating (scale of 0 to 100 where 0 is no effect and 100 is complete control) ([15]; 62 g ai/ha): 15
- Plant response rating (scale of 0 to 100 where 0 is no effect and 100 is complete control) ([15]; 125 g ai/ha): 20
- Plant response rating (scale of 0 to 100 where 0 is no effect and 100 is complete control) ([15]; 250 g ai/ha): 20
- Plant response rating (scale of 0 to 100 where 0 is no effect and 100 is complete control) ([16]; 31 g ai/ha): 5
- Plant response rating (scale of 0 to 100 where 0 is no effect and 100 is complete control) ([16]; 62 g ai/ha): 5
- Plant response rating (scale of 0 to 100 where 0 is no effect and 100 is complete control) ([16]; 125 g ai/ha): 5
- Plant response rating (scale of 0 to 100 where 0 is no effect and 100 is complete control) ([16]; 250 g ai/ha): 15
- Plant response rating (scale of 0 to 100 where 0 is no effect and 100 is complete control) ([17]; 31 g ai/ha): 100
- Plant response rating (scale of 0 to 100 where 0 is no effect and 100 is complete control) ([17]; 62 g ai/ha): 95
- Plant response rating (scale of 0 to 100 where 0 is no effect and 100 is complete control) ([17]; 125 g ai/ha): 100
- Plant response rating (scale of 0 to 100 where 0 is no effect and 100 is complete control) ([17]; 250 g ai/ha): 98
- Plant response rating (scale of 0 to 100 where 0 is no effect and 100 is complete control) ([18]; 31 g ai/ha): 20
- Plant response rating (scale of 0 to 100 where 0 is no effect and 100 is complete control) ([18]; 62 g ai/ha): 45
- Plant response rating (scale of 0 to 100 where 0 is no effect and 100 is complete control) ([18]; 125 g ai/ha): 60
- Plant response rating (scale of 0 to 100 where 0 is no effect and 100 is complete control) ([18]; 250 g ai/ha): 75
- Plant response rating (scale of 0 to 100 where 0 is no effect and 100 is complete control) ([19]; 31 g ai/ha): 0
- Plant response rating (scale of 0 to 100 where 0 is no effect and 100 is complete control) ([19]; 62 g ai/ha): 0
- Plant response rating (scale of 0 to 100 where 0 is no effect and 100 is complete control) ([19]; 125 g ai/ha): 0
- Plant response rating (scale of 0 to 100 where 0 is no effect and 100 is complete control) ([19]; 250 g ai/ha): 0
- Plant response rating (scale of 0 to 100 where 0 is no effect and 100 is complete control) ([20]; 31 g ai/ha): 10
- Plant response rating (scale of 0 to 100 where 0 is no effect and 100 is complete control) ([20]; 62 g ai/ha): 10
- Plant response rating (scale of 0 to 100 where 0 is no effect and 100 is complete control) ([20]; 125 g ai/ha): 55
- Plant response rating (scale of 0 to 100 where 0 is no effect and 100 is complete control) ([20]; 250 g ai/ha): 50

Reference: patent publication US10681909B2, “Herbicidal triazoles” (FMC Corporation, priority 2014, dated 2020)
